Laboratory results as given in the NIST ThermoML archive (doi:10.1021/je700287u).

Settings: Liquid

CN(CCO)CCO [N-methyldiethanolamine]
Settings	mass density [kg/m3]
313.09 K, 1007 kPa	1025.3
313.09 K, 1989 kPa	1025.8
313.09 K, 3027 kPa	1026.4
313.09 K, 4003 kPa	1026.9
313.09 K, 5004 kPa	1027.3
313.09 K, 6004 kPa	1027.8
313.09 K, 6996 kPa	1028.3
313.09 K, 8006 kPa	1028.8
313.09 K, 9066 kPa	1029.4
313.09 K, 10021 kPa	1029.8
313.09 K, 11008 kPa	1030.3
313.09 K, 11995 kPa	1030.8
313.09 K, 13024 kPa	1031.3
313.09 K, 13984 kPa	1031.7
313.09 K, 14994 kPa	1032.2
313.09 K, 15992 kPa	1032.7
313.09 K, 16977 kPa	1033.1
313.09 K, 17994 kPa	1033.6
313.09 K, 19000 kPa	1034
313.09 K, 19985 kPa	1034.5
323.01 K, 1003 kPa	1017.6
323.01 K, 2020 kPa	1018.2
323.01 K, 3006 kPa	1018.7
323.01 K, 4031 kPa	1019.2
323.01 K, 5002 kPa	1019.7
323.01 K, 6020 kPa	1020.2
323.01 K, 7003 kPa	1020.7
323.01 K, 8000 kPa	1021.2
323.01 K, 9006 kPa	1021.7
323.01 K, 9991 kPa	1022.2
323.01 K, 11005 kPa	1022.7
323.01 K, 12000 kPa	1023.2
323.01 K, 13010 kPa	1023.7
323.01 K, 14000 kPa	1024.2
323.01 K, 14987 kPa	1024.7
323.01 K, 15987 kPa	1025.2
323.01 K, 17012 kPa	1025.6
323.01 K, 17991 kPa	1026.1
323.01 K, 18995 kPa	1026.6
323.01 K, 20012 kPa	1027.1
332.95 K, 1045 kPa	1009.9
332.95 K, 2032 kPa	1010.5
332.95 K, 2995 kPa	1011
332.95 K, 3991 kPa	1011.6
332.95 K, 4983 kPa	1012.1
332.95 K, 6016 kPa	1012.6
332.95 K, 6998 kPa	1013.2
332.95 K, 8009 kPa	1013.7
332.95 K, 8993 kPa	1014.2
332.95 K, 9991 kPa	1014.7
332.95 K, 10985 kPa	1015.3
332.95 K, 12014 kPa	1015.8
332.95 K, 13079 kPa	1016.3
332.95 K, 13992 kPa	1016.8
332.95 K, 14999 kPa	1017.3
332.95 K, 15997 kPa	1017.8
332.95 K, 16989 kPa	1018.3
332.95 K, 17997 kPa	1018.8
332.95 K, 19011 kPa	1019.3
332.95 K, 19963 kPa	1019.7
342.78 K, 1004 kPa	1002
342.78 K, 1998 kPa	1002.6
342.78 K, 3050 kPa	1003.2
342.78 K, 4015 kPa	1003.7
342.78 K, 4998 kPa	1004.3
342.78 K, 6020 kPa	1004.9
342.78 K, 7011 kPa	1005.4
342.78 K, 8034 kPa	1006
342.78 K, 9001 kPa	1006.5
342.78 K, 10000 kPa	1007.1
342.78 K, 11000 kPa	1007.6
342.78 K, 12012 kPa	1008.2
342.78 K, 12947 kPa	1008.7
342.78 K, 13991 kPa	1009.2
342.78 K, 15001 kPa	1009.8
342.78 K, 15987 kPa	1010.3
342.78 K, 16998 kPa	1010.8
342.78 K, 18005 kPa	1011.3
342.78 K, 18981 kPa	1011.9
342.78 K, 19980 kPa	1012.4
352.68 K, 1013 kPa	994.4
352.68 K, 2013 kPa	995
352.68 K, 3004 kPa	995.6
352.68 K, 3999 kPa	996.1
352.68 K, 5003 kPa	996.8
352.68 K, 6019 kPa	997.3
352.68 K, 7005 kPa	997.8
352.68 K, 8001 kPa	998.4
352.68 K, 8984 kPa	999
352.68 K, 9981 kPa	999.5
352.68 K, 11029 kPa	1000.2
352.68 K, 11980 kPa	1000.7
352.68 K, 13051 kPa	1001.3
352.68 K, 14000 kPa	1001.8
352.68 K, 14988 kPa	1002.4
352.68 K, 16018 kPa	1002.9
352.68 K, 16978 kPa	1003.4
352.68 K, 17977 kPa	1004
352.68 K, 19003 kPa	1004.5
352.68 K, 19990 kPa	1005.1
362.52 K, 1005 kPa	986.7
362.52 K, 2045 kPa	987.3
362.52 K, 2982 kPa	987.8
362.52 K, 4026 kPa	988.4
362.52 K, 5007 kPa	988.9
362.52 K, 6014 kPa	989.5
362.52 K, 7015 kPa	990.2
362.52 K, 7998 kPa	990.8
362.52 K, 9003 kPa	991.3
362.52 K, 9986 kPa	991.9
362.52 K, 10996 kPa	992.5
362.52 K, 12008 kPa	993.1
362.52 K, 13004 kPa	993.7
362.52 K, 13985 kPa	994.2
362.52 K, 15010 kPa	994.8
362.52 K, 15983 kPa	995.4
362.52 K, 17007 kPa	995.7
362.52 K, 17985 kPa	996.3
362.52 K, 18994 kPa	996.9
362.52 K, 19994 kPa	997.4
